One assay has as its target sACE-1 (Homo sapiens, UniProt P12821). To be noted: generic substrate of previous study; ref [30]; cited from earlier work.
The target in another assay is N-domain of sACE-1 (Homo sapiens, UniProt P12821). As to the kind of experiment: Reversible inhibition of the N-domain of sACE-1, fluorogenic substrate Abz-SDK. The format is biochemical. To be noted: Abz-SDK(Dnp)P-OH 7.5, 10, 15 µM; absence of co-reactants.
Another assay deals with C-domain of sACE-1 (Homo sapiens, UniProt P12821). As to the kind of experiment: Reversible inhibition of the C-domain of sACE-1, fluorogenic substrate Abz-LFK. In kind it is biochemical. To be noted: Abz-LFK(Dnp)-OH 7.5, 10, 15 µM; absence of co-reactants.
C-domain of sACE-1, sequence (P12821 30-1261): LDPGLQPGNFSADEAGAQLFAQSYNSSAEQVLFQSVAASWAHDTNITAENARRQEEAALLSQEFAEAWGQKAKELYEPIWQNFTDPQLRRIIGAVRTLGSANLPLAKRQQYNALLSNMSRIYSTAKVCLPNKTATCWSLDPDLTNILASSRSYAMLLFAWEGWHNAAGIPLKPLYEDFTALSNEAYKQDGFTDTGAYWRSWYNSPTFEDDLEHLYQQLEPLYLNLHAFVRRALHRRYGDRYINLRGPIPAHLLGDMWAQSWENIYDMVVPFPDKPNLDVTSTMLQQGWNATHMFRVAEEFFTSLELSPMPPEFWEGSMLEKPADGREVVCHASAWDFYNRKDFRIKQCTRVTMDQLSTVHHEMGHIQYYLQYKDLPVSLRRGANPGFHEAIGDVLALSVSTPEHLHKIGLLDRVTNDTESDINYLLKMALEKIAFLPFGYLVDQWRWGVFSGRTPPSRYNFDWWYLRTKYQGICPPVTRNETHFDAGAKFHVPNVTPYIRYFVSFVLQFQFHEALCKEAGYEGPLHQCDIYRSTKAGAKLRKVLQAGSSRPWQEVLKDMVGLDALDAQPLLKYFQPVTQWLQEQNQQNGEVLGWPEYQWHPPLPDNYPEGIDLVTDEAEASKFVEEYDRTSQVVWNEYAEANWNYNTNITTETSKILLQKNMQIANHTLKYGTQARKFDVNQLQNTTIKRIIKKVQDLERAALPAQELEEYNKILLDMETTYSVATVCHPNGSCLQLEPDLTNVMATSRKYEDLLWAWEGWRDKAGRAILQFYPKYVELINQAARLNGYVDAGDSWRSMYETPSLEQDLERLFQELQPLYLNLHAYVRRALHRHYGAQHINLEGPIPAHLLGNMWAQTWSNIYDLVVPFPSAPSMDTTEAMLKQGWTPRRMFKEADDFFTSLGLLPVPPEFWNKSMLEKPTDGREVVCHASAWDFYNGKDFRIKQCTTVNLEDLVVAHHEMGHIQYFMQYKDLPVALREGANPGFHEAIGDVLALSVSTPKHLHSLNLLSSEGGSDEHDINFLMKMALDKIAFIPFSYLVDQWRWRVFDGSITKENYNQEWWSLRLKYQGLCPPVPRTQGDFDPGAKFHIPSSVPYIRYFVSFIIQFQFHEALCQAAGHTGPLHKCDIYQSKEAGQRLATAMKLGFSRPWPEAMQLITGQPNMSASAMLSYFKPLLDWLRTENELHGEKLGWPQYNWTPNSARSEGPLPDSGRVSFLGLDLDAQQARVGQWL
The conditions of assay [1]: ref [15],[24]; cited from earlier work.
For assay [2] the following is noted: in SHR; ref [38]; cited from earlier work.
Another assay relates to ACE. To be noted: ref [38]; cited from earlier work.

*: point of attachment. Dnp = O=[N+]([O-])c1ccc(*)c([N+](=O)[O-])c1; Mca = COc1ccc2c(CC(=O)*)cc(=O)oc2c1

sACE-1, sequence (P12821 30-1261): as above
N-domain of sACE-1, sequence (P12821 30-1261): as above

As for “Mca-RPPGFSAFK(Dnp)-OH (SMILES COc1ccc2c(CC(=O)N[C@@H](CCCNC(=N)N)C(=O)N3CCC[C@H]3C(=O)N3CCC[C@H]3C(=O)NCC(=O)N[C@@H](Cc3ccccc3)C(=O)N[C@@H](CO)C(=O)N[C@@H](C)C(=O)N[C@@H](Cc3ccccc3)C(=O)N[C@@H](CCCCNc3ccc([N+](=O)[O-])cc3[N+](=O)[O-])C(=O)O)cc(=O)oc2c1)”, in the assay with sACE-1, the Km is 4.5 ± 0.6 µM and the kcat was 20.33 ± 0.833 s⁻¹.
Take `NCCCC[C@H](N[C@@H](CCc1ccccc1)C(=O)O)C(=O)N1CCC[C@H]1C(=O)O` [Lisinopril]: the “Inhibition mode by Dixon plot (N-domain)” value at N-domain of sACE-1 is reported as “competitive inhibitors”. The “Inhibition mode by Dixon plot (C-domain)” value on C-domain of sACE-1 is recorded as “competitive inhibitors”.
Consider “Ac-Asp-(L)Pheψ(PO2-CH2)(L)Ala-Ala-NH2 [RXP407]”, for which, in assay [1], the “Effect on blood pressure regulation” value is recorded as “no effect on blood pressure regulation”.
With Ile-Pro-Pro, in assay [2], the lowers blood pressure is at most 30 mmHg. Besides, the IC50 with ACE was 5 µM.

Broadly, the Km is the substrate concentration at which the rate is half of its maximum. As usually defined, the kcat is the number of substrate molecules converted per active site and unit of time at saturation. Broadly, the IC50 is the midpoint of a concentration-inhibition curve.

The values above are taken from article PMC4052451 (Journal of medicinal chemistry, 2013).
